In patent US6706663B2, “Herbicidal 3-heterocyclic substituted benzisothiazole and benzisoxazole compounds” (Wyeth, priority 2000, dated 2004):

What was measured:
[1] = system: GLXMAW (Soybean, Williams); test: Preemergence herbicidal evaluation; type: in vivo, Glycine max, (L.) Merr. cv Williams; conditions: rated 4-5 weeks after treatment
ZEAMX (Corn, Field) = test: Preemergence herbicidal evaluation; type: in vivo, Zea mays, L.; conditions: rated 4-5 weeks after treatment
[2] = system: CYPSE (Cyperus serotinus); test: Flooded paddy, preemergence weed control; type: in vivo, Rottb.; conditions: rated 3-4 weeks after treatment, 0-9 rating scale
In short: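 Seeds or propagules were planted 0.5 cm deep in silt loam and flooded to 1.5–3 cm. Compounds in 50/50 v/v aqueous/acetone were pipetted into the flood water at about 0.0080 to 0.1250 kg/ha. After 3–4 weeks in the greenhouse, effect was rated visually on a 0–9 scale versus untreated control.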

[3] = system: ECHCG (Echinochloa crus-galli); test: Postemergence herbicidal evaluation; type: in vivo, (L.) Beau
In short: (§1)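 Visual 0–9 injury scores versus control plants, covering stand, vigour, malformation, size, chlorosis and general appearance, taken four to five weeks post-spray and averaged over replicate tests. Plants were sprayed at roughly two weeks old and held on greenhouse benches.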

[4] = system: IPOHE (Ipomoea hederacea); test: Preemergence herbicidal evaluation; type: in vivo, (L.) Jacq.; conditions: rated 4-5 weeks after treatment
ORYSAT (Rice, Tebonnet) = test: Flooded paddy, post-transplant rice tolerance; type: in vivo, Oryza sativa, (L.) Tebonnet; conditions: flooded paddy, post-transplant rice, rated 3-4 weeks after treatment, 0-9 rating scale
In short: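 Scores (0-9) reflect visual injury relative to untreated plants in flooded silt loam. Each pot held two transplanted ten-day-old seedlings under 1.5 to 3 cm standing water in the greenhouse.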

[5] = system: ABUTH (Abutilon theophrasti); test: Preemergence herbicidal evaluation; type: in vivo, Medic.; conditions: rated 4-5 weeks after treatment
[6] = system: TRZAWR (Wheat, Winter, cv Riband); test: Postemergence herbicidal evaluation; type: in vivo, Triticum aestivum
In short: as §1

[7] = system: SAGPY (Sagittaria pygmaea); test: Flooded paddy, preemergence weed control; type: in vivo, L.; conditions: rated 3-4 weeks after treatment, 0-9 rating scale
In short: (§2)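 Ratings of 0-9 reflect visual comparison with a control for stand, vigor, deformity, size, chlorosis and overall look. Propagules were placed in shallow silt loam (top 0.5 cm) under a continuous 1.5–3 cm flood and grown in the greenhouse.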

[8] = system: AMBEL (Ambrosia artemisifolia); test: Preemergence herbicidal evaluation; type: in vivo, L.; conditions: rated 4-5 weeks after treatment
In short: (§3)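 Rating 0–9, visual, vs control; 4–5 wk after spraying seeded cups with compound in aq. acetone; conventional greenhouse care.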

[9] = system: CASOB (Cassia obtusifolia); test: Preemergence herbicidal evaluation; type: in vivo, L.; conditions: rated 4-5 weeks after treatment
In short: as §3

[10] = system: CHEAL (Chenopodium album); test: Preemergence herbicidal evaluation; type: in vivo, L.; conditions: rated 4-5 weeks after treatment
In short: as §3

SETVI (Setaria viridis) = test: Postemergence herbicidal evaluation; type: in vivo, (L.) Beau
In short: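 Seedlings about two weeks old were sprayed with compound in 50/50 acetone/water plus 0.5% TWEEN 20, at the equivalent of about 0.0040 to 1.000 kg/ha. Plants were kept in a greenhouse and visually rated 0-9 against a control four to five weeks after treatment. Repeat tests were averaged.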

CYPIR (Cyperus iria) = test: Flooded paddy, preemergence weed control; type: in vivo; conditions: rated 3-4 weeks after treatment, 0-9 rating scale
In short: as §2

[11] = system: MOOVA (Monochoria vaginalis); test: Flooded paddy, preemergence weed control; type: in vivo, Presl.; conditions: rated 3-4 weeks after treatment, 0-9 rating scale
In short: as §2

[12] = system: ECHORC (Echinochloa oryzoides); test: Flooded paddy, preemergence weed control; type: in vivo, Echinochloa oryzoides (Ard.) Fritsch.; conditions: rated 3-4 weeks after treatment, 0-9 rating scale
In short: as §2

C[C@@H]1OC(c2nsc3ccc(-n4c(=O)cc(C(F)(F)F)n(C)c4=O)cc23)O[C@@H]1C (stereo partly drawn) [Compound 47, 3-[3-[(4R,5S)-4,5-dimethyl-1,3-dioxolan-2-yl]-1,2-benzisothiazol-5-yl]-1-methyl-6-(trifluoromethyl)uracil]
Preemergence herbicidal rating GLXMAW ([1]; Rate 0.0620 kg/ha): 7.0 | Preemergence herbicidal rating GLXMAW ([1]; Rate 0.1250 kg/ha): 8.0 | Preemergence herbicidal rating GLXMAW ([1]; Rate 0.2500 kg/ha): 9.0 | Preemergence herbicidal rating ZEAMX (ZEAMX (Corn, Field); Rate 0.0620 kg/ha): 7.5 | Preemergence herbicidal rating ZEAMX (ZEAMX (Corn, Field); Rate 0.1250 kg/ha): 8.0 | Preemergence herbicidal rating ZEAMX (ZEAMX (Corn, Field); Rate 0.2500 kg/ha): 9.0 | herbicidal rating, CYPSE ([2]; rate 0.0320 kg/ha): 9.0 | herbicidal rating, CYPSE ([2]; rate 0.1250 kg/ha): 9.0 | Postemergence herbicidal rating, ECHCG ([3]; rate 0.0320 kg/ha): 0.0 | Postemergence herbicidal rating, ECHCG ([3]; rate 0.0620 kg/ha): 3.0 | Preemergence herbicidal rating IPOHE ([4]; Rate 0.0620 kg/ha): 7.5 | Preemergence herbicidal rating IPOHE ([4]; Rate 0.1250 kg/ha): 8.0 | Preemergence herbicidal rating IPOHE ([4]; Rate 0.2500 kg/ha): 9.0 | herbicidal rating, ORYSAT (rice tolerance) (ORYSAT (Rice, Tebonnet); rate 0.0080 kg/ha): 3.0 | herbicidal rating, ORYSAT (rice tolerance) (ORYSAT (Rice, Tebonnet); rate 0.0320 kg/ha): 7.5 | herbicidal rating, ORYSAT (rice tolerance) (ORYSAT (Rice, Tebonnet); rate 0.1250 kg/ha): 9.0 | Preemergence herbicidal rating ABUTH ([5]; Rate 0.0620 kg/ha): 9.0 | Preemergence herbicidal rating ABUTH ([5]; Rate 0.1250 kg/ha): 9.0 | Preemergence herbicidal rating ABUTH ([5]; Rate 0.2500 kg/ha): 9.0 | Postemergence herbicidal rating, TRZAWR ([6]; rate 0.0320 kg/ha): 5.0 | Postemergence herbicidal rating, TRZAWR ([6]; rate 0.0620 kg/ha): 6.0 | herbicidal rating, SAGPY ([7]; rate 0.0080 kg/ha): 0.0 | herbicidal rating, SAGPY ([7]; rate 0.0320 kg/ha): 7.5 | herbicidal rating, SAGPY ([7]; rate 0.1250 kg/ha): 9.0 | Preemergence herbicidal rating AMBEL ([8]; Rate 0.0620 kg/ha): 9.0 | Preemergence herbicidal rating AMBEL ([8]; Rate 0.1250 kg/ha): 9.0 | Preemergence herbicidal rating AMBEL ([8]; Rate 0.2500 kg/ha): 9.0 | Preemergence herbicidal rating CASOB ([9]; Rate 0.0620 kg/ha): 4.5 | Preemergence herbicidal rating CASOB ([9]; Rate 0.1250 kg/ha): 7.5 | Preemergence herbicidal rating CASOB ([9]; Rate 0.2500 kg/ha): 9.0 | Preemergence herbicidal rating CHEAL ([10]; Rate 0.0620 kg/ha): 9.0 | Preemergence herbicidal rating CHEAL ([10]; Rate 0.1250 kg/ha): 9.0 | Preemergence herbicidal rating CHEAL ([10]; Rate 0.2500 kg/ha): 9.0 | Postemergence herbicidal rating, SETVI (SETVI (Setaria viridis); rate 0.0320 kg/ha): 9.0 | Postemergence herbicidal rating, SETVI (SETVI (Setaria viridis); rate 0.0620 kg/ha): 9.0 | herbicidal rating, CYPIR (CYPIR (Cyperus iria); rate 0.0080 kg/ha): 0.0 | herbicidal rating, CYPIR (CYPIR (Cyperus iria); rate 0.0320 kg/ha): 8.5 | herbicidal rating, CYPIR (CYPIR (Cyperus iria); rate 0.1250 kg/ha): 9.0 | herbicidal rating, MOOVA ([11]; rate 0.0320 kg/ha): 9.0 | herbicidal rating, MOOVA ([11]; rate 0.1250 kg/ha): 9.0 | herbicidal rating, ECHORC ([12]; rate 0.0080 kg/ha): 5.0 | herbicidal rating, ECHORC ([12]; rate 0.0320 kg/ha): 8.5 | herbicidal rating, ECHORC ([12]; rate 0.1250 kg/ha): 9.0
